Laboratory results reported in paper PMC7143940, “Enhancing the Immune Response of a Nicotine Vaccine with Synthetic Small “Non-Natural” Peptides” (Molecules, 2020).
“Also recorded” adds a separate entry of the source. Where a SMILES comes first, the peptide text is derived from it.

Experiment: Peptide stability in human plasma (RP-HPLC)
Assay type: in vitro ADME
Conditions: human plasma (EDTA blood, healthy volunteers), 37 °C, various time points, RP-HPLC with 0.1% trifluoroacetic acid, absorbance at 210 nm, average ± SEM of three separate experiments; result in words
Experimental: Figure 1 Peptide stability in plasma. Pentapeptide 1 was incubated in human plasma at 37 °C. Levels of the peptide remaining after various time points were analyzed by RP-HPLC in the presence of 0.1% trifluoroacetic acid and detected by absorbance at 210 nm. Peptide amounts were calculated relative to quantities determined at time point zero, and data shown are the average ± SEM of three separate experiments.
Blood was collected from healthy volunteers in EDTA blood collection tubes (BD Vacutainer, Mississauga, ON, Canada). Plasma was collected after centrifugation at 900× g and 20 °C for 10 min with decreased deceleration, aliquoted, and stored at −80 °C. All subjects gave their informed consent for inclusion before they participated in the study. The study was conducted in accordance with the Declaration of Helsinki, with all protocols approved by the Research Ethics Board at Health Sciences North Research Institute (Protocol # 18-061).
The stability of pentapeptide 1 in human plasma was analyzed using previously published methods.

## NCCCC[C@H](N)C(=O)N[C@@H](Cc1c[nH]c2ccccc12)C(=O)N[C@@H](CS)C(=O)N[C@@H](CCC(=O)O)C(=O)N[C@@H](CS)C(=O)O [Peptide 1, KWCEC] (H-KWCEC-OH)
  Plasma stability: peptide remaining relative to time point zero: No statistical difference was found between the two time points; also recorded: not recognized and cleaved by proteolytic enzymes
